{
  "source": "patent EP3785697A1",
  "about": "“COSMETIC COMPOSITIONS COMPRISING PIPERLONGUMINE” (Unilever N.V., priority 2019, dated 2021)",
  "key": {"IL-6": {"tested_on": "IL-6", "test": "Human immune cell line THP-1 in vitro assay, IL-6 measured by ELISA in supernatant", "type": "cell-based", "description": "(§1) In this assay, the concentration of IL-6 (Interleukin-6) and the % cell viability are measured. Widening of therapeutic window is indicated by the concentration of Interleukin-6 (IL-6) as measured on the Human Immune cell Line using the THP-1 invitro assay in pg/ml and the % cell viability of THP-1 cells.\n(§2) Cells were differentiated in 24-well plates at the density of 5 x 10^5 cells / well with 100 nM PMA for 72 hours. Cells were then co-treated with E.coli lipopolysaccharides (LPS) and single concentration or a combination of piperlongumine and L-cystine at different doses. After 24 hours, the supernatants were collected for measurement of interleukin (IL)-6 as a pro-inflammatory biomarker using enzyme-linked immunosorbent assay (ELISA)."}, "THP-1 cells": {"tested_on": "THP-1 cells", "conditions": "human, 24 h, 100 µM", "description": "as §1, §2"}, "[1]": {"test": "Human immune cell line THP-1 in vitro assay, cell viability", "conditions": "thp-1 cells, Cell viability (%)", "description": "as §1, §2"}, "[2]": {"test": "Human oral keratinocytes (HOK) in vitro assay, cell viability by cell counting kit-8", "conditions": "human, oral keratinocytes, Cell viability (%), Table 3, Piperlongumine 15 µM, HOKs treated with heat killed P.gingivalis, Control 100", "description": "(§3) HOKs (Passage 4-6) were seeded in 96 well-plates at the density of 2 x 10^4 cells / well overnight. On the experimental day the cells were treated with heat killed P.gingivalis and single concentration or a combination of piperlongumine and L-cystine at different doses. After 24 hours, cell viability was measured with cell counting kit-8."}, "[3]": {"tested_on": "Human oral keratinocytes (HOK)", "test": "Human oral keratinocytes (HOK) in vitro assay, cell viability by cell counting kit-8", "conditions": "Table 3; Piperlongumine 15 µM, HOKs treated with heat killed P.gingivalis, 24 hours; Control 100; 1440 min, 15 µM", "description": "as §3"}, "in vitro": {"test": "in vitro", "conditions": "human, oral keratinocytes", "description": "as §3"}, "[4]": {"conditions": "25°C; cited from earlier work"}},
  "data": [
    {"molecule": "Vitamin E [reference compound]", "values": [
      {"measurement": "Concentration of IL-6", "setting": "IL-6; Table 2, Vitamin E 100 µM, Control 122, LPS alone 3953", "result": 2998, "unit": "pg/mL"},
      {"measurement": "Cell viability (%)", "setting": "THP-1 cells", "result": 73, "unit": "%"}
    ]},
    {"molecule": "COc1cc(/C=C/C(=O)N2CCC=CC2=O)cc(OC)c1OC", "note": "[Piperlongumine, 5,6-dihydro-1-[(2E)-1-oxo-3-(3,4,5-trimethoxyphenyl)-2-propenyl]-2(1 H)-pyridinone]", "values": [
      {"measurement": "Concentration of IL-6", "setting": "IL-6; Table 1, Piperlongumine 5 µM, co-treated with E.coli LPS, 24 hours, Control 98, LPS alone 2252", "result": 103, "unit": "pg/mL"},
      {"measurement": "Concentration of IL-6", "setting": "IL-6; Table 1, Piperlongumine 10 µM, co-treated with E.coli LPS, 24 hours, Control 98, LPS alone 2252", "result": 117, "unit": "pg/mL"},
      {"measurement": "Concentration of IL-6", "setting": "IL-6; Table 2, Piperlongumine 10 µM, Control 122, LPS alone 3953", "result": 91, "unit": "pg/mL"},
      {"measurement": "viability at 24 h, 5 µM", "setting": "[1]; Table 1, Piperlongumine 5 µM, co-treated with E.coli LPS, 24 hours, Control 100, LPS alone 91", "result": 100, "unit": "%"},
      {"measurement": "viability at 24 h, 10 µM", "setting": "[1]; Table 1, Piperlongumine 10 µM, co-treated with E.coli LPS, 24 hours, Control 100, LPS alone 91", "result": 74, "unit": "%"},
      {"measurement": "viability at 24 h, 10 µM", "setting": "[1]; Table 2, Piperlongumine 10 µM, Control 100, LPS alone 86", "result": 39, "unit": "%"},
      {"measurement": "viability at 24 h, 15 µM", "setting": "[2]", "result": 63.4, "unit": "%"},
      {"measurement": "Cell viability (%)", "setting": "[3]", "result": 63.38, "unit": "%"}
    ]},
    {"molecule": "N[C@@H](CSSC[C@H](N)C(=O)O)C(=O)O", "note": "[L-cystine]", "values": [
      {"measurement": "Concentration of IL-6", "setting": "IL-6; Table 1, L-cystine 100 µM, co-treated with E.coli LPS, 24 hours, Control 98, LPS alone 2252", "result": 1896, "unit": "pg/mL"},
      {"measurement": "viability at 24 h, 50 µM", "setting": "in vitro", "result": 102, "unit": "%"},
      {"measurement": "viability at 24 h, 100 µM", "setting": "in vitro", "result": 109, "unit": "%"},
      {"measurement": "Solubility in water", "setting": "[4]", "result": 112, "unit": "µg/mL"}
    ]}
  ]
}
